Source: patent US7482321B2, “Extended glucagon-like peptide-1 analogs” (Eli Lilly and Company, priority 2002, dated 2009)
“And” between values parts separate entries of the source, which are not always exact repeats. Equal values may be shown once. Read-outs that look alike come from different tables or passages of the source. Marks after values point to notes of the source that are not given here. Ends that are not written are not given here.

Columns and labels:
[1] = Pharmacokinetics after single intravenous dose in rats; details: single i.v. 10 μg/kg; for level at 5 min / level at 0.25 h / level at 0.5 h / level at 1 h / level at 2 h: Sprague Dawley, plasma, Plasma Concentration; for level at 1 h: 60 min; for AUC0-last / Cl / Cmax / Vss / t½ / AUC(0-t) / clearance / Vd / half-life: Sprague Dawley rats; for AUC(0-t): AUC0-last; for clearance: Cl; for Vd: Vss; for half-life: t½
Experimental: (§1) Pharmacokinetic parameters were determined for the following 5 different extended GLP-1 peptides:
(§2) Parameters were determined following a single intravenous dose of 10 μg/kg in four different rats.

[2] = Dog hyperglycemic clamp study, GLP-1 peptide concentration; set-up: species or system dogs; details: in vivo, iv
Experimental: Several different extended and non-extended GLP-1 peptides were tested for activity in a hyperglycemic clamp study in dogs. Glucose was infused for 200 minutes to maintain constant levels. For the first 80 minutes dogs were infused intravenously with vehicle to establish a baseline insulin concentration. For the next 60 minutes, GLP-1 peptides were administered at a rate of 1 pmol/kg/min. For the final 60 minutes the infusion rate of each GLP-1 compound was increased to 3 pmol/kg/min. Blood samples were taken periodically for the determination of insulin and GLP-1 peptide concentrations. Insulin change values were calculated as the difference between the value at time t and the average value during the last 20 minutes of the control period (60-80) minutes and are presented in Table 3. Areas under the insulin change curves were calculated using the trapezoidal rule over the last 30 minutes of each infusion period. Values listed are the means±standard error of the mean (SEM).

in vivo = details: Sprague Dawley, rat, iv, 10 ug/kg, Plasma Concentration
Experimental: as §1, §2

[3] = rat, in vivo, iv, 10 ug/kg
Experimental: as §1, §2

[4] = rat, iv, 10 ug/kg, 5 min, Mean of 4 rats
[5] = rat, iv, 10 ug/kg, 5 min, individual rats
[6] = rat, iv, 10 ug/kg, 15 min, Mean of 4 rats
[7] = rat, iv, 10 ug/kg, 15 min, individual rats
[8] = rat, iv, 10 ug/kg, 30 min, Mean of 4 rats
[9] = rat, iv, 10 ug/kg, 30 min, individual rats
[10] = rat, iv, 10 ug/kg, Mean of 4 rats (values below LLOQ taken as zero)
[11] = rat, iv, 10 ug/kg, individual rats
[12] = rat, iv, 10 ug/kg, 120 min, individual rats
[13] = rat, in vivo, iv, 10 ug/kg, Mean of 4 rats
[14] = rat, in vivo, iv, 10 ug/kg, individual rats
[15] = rat, in vivo, iv, 10 ug/kg, Cmax, Mean of 4 rats
[16] = rat, in vivo, iv, 10 ug/kg, Cmax, individual rats
[17] = infusion rate 1 pmol/kg/min i.v., dog hyperglycemic clamp, after 60 minutes of infusion, mean ± SEM, read-out: Compound Concentration (t = 60′)
[18] = infusion rate 3 pmol/kg/min i.v., dog hyperglycemic clamp, after 60 minutes of infusion, mean ± SEM, read-out: Compound Concentration (t = 60′)

CC[C@H](C)[C@H](NC(=O)[C@H](Cc1ccccc1)NC(=O)[C@H](CCC(=O)O)NC(=O)[C@H](CCCCN)NC(=O)[C@H](C)NC(=O)[C@H](C)NC(=O)[C@H](CCC(N)=O)NC(=O)CNC(=O)[C@H](CCC(=O)O)NC(=O)[C@H](CC(C)C)NC(=O)[C@H](Cc1ccc(O)cc1)NC(=O)[C@H](CO)NC(=O)[C@H](CO)NC(=O)[C@@H](NC(=O)[C@H](CC(=O)O)NC(=O)[C@H](CO)NC(=O)[C@@H](NC(=O)[C@H](Cc1ccccc1)NC(=O)[C@@H](NC(=O)CNC(=O)[C@H](CCC(=O)O)NC(=O)[C@@H](NC(=O)[C@@H](N)Cc1c[nH]cn1)C(C)C)[C@@H](C)O)[C@@H](C)O)C(C)C)C(=O)N[C@@H](C)C(=O)N[C@@H](Cc1c[nH]c2ccccc12)C(=O)N[C@@H](CC(C)C)C(=O)N[C@H](C(=O)N[C@@H](CCCCN)C(=O)NCC(=O)N[C@@H](CCCNC(=N)N)C(=O)NCC(=O)N[C@@H](CO)C(=O)N[C@@H](CO)C(=O)NCC(=O)N[C@@H](C)C(=O)N1CCC[C@H]1C(=O)N1CCC[C@H]1C(=O)N1CCC[C@H]1C(=O)N[C@@H](CO)C(=O)O)C(C)C [Compound 4]
Plasma Concentration ([1]; 5 min, individual rats): 24853 pg/mL
Plasma Concentration ([1]; 120 min, individual rats): <150 ^a pg/mL
level at 5 min [1, 4]: 23.6 ng/mL
level at 5 min [1, 5]: 25.4 ng/mL
level at 0.25 h [1, 6]: 9.86 ng/mL
level at 0.25 h [1, 7]: 12.1 ng/mL
level at 0.5 h [1, 8]: 3.18 ng/mL
level at 0.5 h [1, 9]: 4.37 ng/mL
level at 1 h [1, 10]: 0.636 ng/mL
level at 1 h [1, 11]: 0.869 ng/mL
level at 2 h [1, 12]: < 0.15 ng/mL
AUC0-last ([1]; individual rats): 486.7 ng·min/mL and 424.9 ng·min/mL and 461.5 ng·min/mL
Cl ([1]; individual rats): 20.5 mL/min/kg and 23.5 mL/min/kg and 21.7 mL/min/kg
Cmax ([1]; individual rats): 24.9 ng/mL and 20.0 ng/mL and 24.0 ng/mL
Vss ([1]; individual rats): 0.2511 L/kg and 0.3159 L/kg and 0.2492 L/kg
t½ ([1]; individual rats): 11.9 min and 11.2 min and 11.0 min
AUC(0-t) [1, 13]: 8.05 ng·h/mL
AUC(0-t) [1, 14]: 9.33 ng·h/mL
clearance [1, 13]: 20.9 mL/min/kg
clearance [1, 14]: 17.9 mL/min/kg
Cmax [1, 15]: 23.6 ng/mL
Cmax [1, 16]: 25.4 ng/mL
Vd [1, 13]: 0.269 L/kg
Vd [1, 14]: 0.259 L/kg
half-life [1, 13]: 11.5 min
half-life [1, 14]: 12 min

HVEGTFTSDVSSYLEEQAAKEFIAWLIKGGPSSGAPPPS [SEQ ID NO:55]
level at time molar at 1 h ([2]; dog, 1 pmol/kg/min): 0.246 ± 0.017 nM
level at time molar at 1 h ([2]; dog, 3 pmol/kg/min): 0.766 ± 0.046 nM

HVEGTFTSDVSSYLEEQAAKEFIAWLIKGGPSSGDPPPS [Compound 2]
Plasma Concentration ([1]; 120 min, individual rats): <150 ^a pg/mL
level at 5 min [1, 4]: 17.3 ng/mL
level at 0.25 h [1, 6]: 6.82 ng/mL
level at 0.5 h [1, 8]: 2.95 ng/mL
level at 1 h [1, 10]: 1.05 ng/mL
AUC0-last ([1]; individual rats): 312.2 ng·min/mL and 430.0 ng·min/mL and 409.1 ng·min/mL
Cl ([1]; individual rats): 32.0 mL/min/kg and 23.3 mL/min/kg and 24.4 mL/min/kg
Cmax ([1]; individual rats): 9.8 ng/mL and 16.9 ng/mL and 21.4 ng/mL and 21.1 ng/mL
Vss ([1]; individual rats): 0.9739 L/kg and 0.3557 L/kg and 0.2833 L/kg and 0.3134 L/kg
t½ ([1]; individual rats): 35.8 min and 12.3 min and 10.6 min and 14.4 min
AUC(0-t) [1, 13]: 6.93 ng·h/mL
AUC(0-t) [1, 14]: 8.55 ng·h/mL
clearance [1, 13]: 24.8 mL/min/kg
clearance [1, 14]: 19.5 mL/min/kg
Cmax [1, 15]: 17.3 ng/mL
Vd [1, 13]: 0.482 L/kg
half-life [1, 13]: 18.3 min
level at time molar at 1 h [2, 17]: 0.204 ± 0.024 nM
level at time molar at 1 h [2, 18]: 0.755 ± 0.072 nM

HVEGTFTSDVSSYLEEQAAKEFIAWLIKGGPSSGDPPPS-NH2 [Compound 1]
Plasma Concentration ([1]; 30 min, individual rats): 3119 pg/mL
Plasma Concentration ([1]; 120 min, individual rats): <150 ^a pg/mL
level at 5 min [1, 4]: 23.5 ng/mL
level at 5 min [1, 5]: 24.6 ng/mL
level at 0.25 h [1, 6]: 9.61 ng/mL
level at 0.25 h [1, 7]: 10 ng/mL
level at 0.5 h [1, 8]: 3.1 ng/mL
level at 0.5 h [1, 9]: 3.12 ng/mL
level at 1 h [1, 10]: 0.554 ng/mL
level at 2 h [1, 12]: < 0.15 ng/mL
AUC0-last ([1]; individual rats): 478.8 ng·min/mL and 448.5 ng·min/mL and 469.4 ng·min/mL
Cl ([1]; individual rats): 20.9 mL/min/kg and 22.3 mL/min/kg and 21.3 mL/min/kg
Cmax ([1]; individual rats): 24.1 ng/mL and 22.8 ng/mL and 22.4 ng/mL
Vss ([1]; individual rats): 0.2463 L/kg and 0.2657 L/kg and 0.2704 L/kg
t½ ([1]; individual rats): 10.1 min and 10.9 min
AUC(0-t) [1, 13]: 7.92 ng·h/mL
AUC(0-t) [1, 14]: 8.41 ng·h/mL
clearance [1, 13]: 21.1 mL/min/kg
clearance [1, 14]: 19.8 mL/min/kg
Cmax [1, 15]: 23.5 ng/mL
Cmax [1, 16]: 24.6 ng/mL
Vd [1, 13]: 0.264 L/kg
Vd [1, 14]: 0.273 L/kg
half-life [1, 13]: 11 min
half-life [1, 14]: 13.1 min
level at time molar at 1 h [2, 17]: 0.268 ± 0.045 nM
level at time molar at 1 h [2, 18]: 0.977 ± 0.135 nM

HVEGTFTSDVSSYLEEQAAKEFIAWLVKGRGSSGAPPPS [Compound 3]
Plasma Concentration ([1]; 15 min, individual rats): 8467 pg/mL
Plasma Concentration ([1]; 120 min, individual rats): <150 ^a pg/mL
level at 5 min [1, 4]: 23.2 ng/mL
level at 5 min [1, 5]: 23.6 ng/mL
level at 0.25 h [1, 6]: 8.81 ng/mL
level at 0.25 h [1, 7]: 8.6 ng/mL
level at 0.5 h [1, 8]: 3.44 ng/mL
level at 0.5 h [1, 9]: 3 ng/mL
level at 1 h [1, 10]: 0.657 ng/mL
level at 1 h [1, 11]: 0.566 ng/mL
level at 2 h [1, 12]: < 0.15 ng/mL
AUC0-last ([1]; individual rats): 465.6 ng·min/mL and 492.5 ng·min/mL and 409.1 ng·min/mL
Cl ([1]; individual rats): 21.5 mL/min/kg and 20.3 mL/min/kg and 24.4 mL/min/kg
Cmax ([1]; individual rats): 22.7 ng/mL and 24.3 ng/mL and 21.1 ng/mL
Vss ([1]; individual rats): 0.2805 L/kg and 0.2624 L/kg and 0.3134 L/kg
t½ ([1]; individual rats): 11.7 min and 12.0 min and 14.4 min
AUC(0-t) [1, 13]: 7.96 ng·h/mL
AUC(0-t) [1, 14]: 7.78 ng·h/mL
clearance [1, 13]: 21 mL/min/kg
clearance [1, 14]: 21.4 mL/min/kg
Cmax [1, 15]: 23.3 ng/mL
Cmax [1, 16]: 23.6 ng/mL
Vd [1, 13]: 0.277 L/kg
Vd [1, 14]: 0.263 L/kg
half-life [1, 13]: 12.1 min
half-life [1, 14]: 11.6 min

HVEGTFTSDVSSYLEEQAVKEFIAWLIKGGPSSGAPPPRG [SEQ ID NO:48]
level at time molar at 1 h ([2]; dog, 1 pmol/kg/min): 0.227 ± 0.04 nM
level at time molar at 1 h ([2]; dog, 3 pmol/kg/min): 1.09 ± 0.106 nM

HVEGTFTSDVSSYLEEQAVKEFIAWLIKGGPSSGAPPPS [SEQ ID NO:42]
level at time molar at 1 h ([2]; dog, 1 pmol/kg/min): 0.276 ± 0.036 nM
level at time molar at 1 h ([2]; dog, 3 pmol/kg/min): 1.11 ± 0.139 nM

HVEGTFTSDVSSYLEEQAVKEFIAWLIKGGPSSGAPPPS-NH2 [SEQ ID NO:13]
level at time molar at 1 h ([2]; dog, 1 pmol/kg/min): 0.366 ± 0.059 nM
level at time molar at 1 h ([2]; dog, 3 pmol/kg/min): 1.32 ± 0.211 nM

HVEGTFTSDVSSYLEEQAVKEFIAWLIKGGPSSGAPPPSH [SEQ ID NO:43]
level at time molar at 1 h ([2]; dog, 1 pmol/kg/min): 0.306 ± 0.02 nM
level at time molar at 1 h ([2]; dog, 3 pmol/kg/min): 1.06 ± 0.034 nM

HVEGTFTSDVSSYLEEQAVKEFIAWLIKGRGSSGAPPPS [SEQ ID NO:35]
level at time molar at 1 h ([2]; dog, 1 pmol/kg/min): 0.267 ± 0.031 nM
level at time molar at 1 h ([2]; dog, 3 pmol/kg/min): 1.04 ± 0.103 nM

HVEGTFTSDWSSYLEEQAAKEFIAWLIKGRGSSGAPPPS [Compound 5]
level at 5 min (in vivo): 35.9 ng/mL
level at 0.25 h (in vivo): 16.1 ng/mL
level at 2 h (in vivo): < 0.15 ng/mL
AUC(0-t) ([3]; AUC0-last): 12.5 ng·h/mL
clearance ([3]; Cl): 13.4 mL/min/kg
Cmax ([3]; Cmax): 35.9 ng/mL
Vd ([3]; Vss): 0.179 L/kg
half-life ([3]; t½): 11.9 min
